Tests used:
PGE-2 [1] = test: UV-induced PGE-2 in dermal fibroblasts (ELISA); type: cell-based, human; details: UVB doses of 75 mJ, 100 mJ and 125 mJ; 10 μM
Excerpt: Methods and Materials. The following experiment involved examining the effect of CoQ10 on UVR-induced inflammatory mediators in human dermal fibroblasts. That is, because skin aging is known to be accelerated by inflammatory cytokines produced in the skin by UVR, this experiment assessed the ability of CoQ10 to inhibit the production of the inflammatory mediators produced in human dermal fibroblasts in response to either UVB radiation or to stimulation by IL-1, a pro-inflammatory cytokine produced in keratinocytes by UVR. […]
The cells were isolated and cultured as follows. The dermal fibroblasts were isolated from human neonatal foreskin and cultured in Dulbecco's modified eagle media with L-glutamine and 4.5 mM glucose and without sodium pyruvate (“DMEM”) (available from Fisher Scientific, Pittsburgh, Pa.) containing 5% horse serum (available from Hyclone, Logan, Utah), 5% fetal bovine serum (available from Hyclone), and penicillin/streptomycin (100 U/100 μg/ml). Cell cultures were grown at 37° C. in a humidified CO2 incubator (5% CO2). […]
(§1) For the experiments, cells were seeded into 12 well culture dishes in complete growth medium at a density of 10^5 cells/well and allowed to attach overnight. […] Cells were incubated for 24 hours at 37° C., at which time the media was removed for assay and the cells counted. […]

[2] = Oxidation of CoQ10 by 0.03% hypochlorite, with lycopene or colorless carotenoids (HPLC); type: physicochemical; details: Example 7, 1.5 hours
Procedure: (§2) HPLC Analysis of CoQ10. The amount of CoQ10 remaining in degradation experiments below were determined by High Pressure Liquid Chromatography (HPLC). The column used was a Microsorb C18 reverse phase column (15 cm×0.46 cm), the mobile phase consisted of 85% methanol and 15% hexane at a flow rate of 1 ml/minute and CoQ10 was detected at […]. The instrument used was a HP 1090 gradient HPLC system with photodiode array detector and autosampler.
Methods and Materials. The following experiment was a comparison of the impact that colorless carotenoids or lycopene have on CoQ10 when CoQ10 is exposed to hypochlorite oxidation.
695 μg/ml of CoQ10 was prepared in chloroform/ethanol (1:1). The calculated amounts of phytoene and phytofluene used in the study was 0.0142% and 0.0012%, respectively. The calculated amount of lycopene was 2 mg/ml in chloroform. Four plates of cells were prepared and allowed to attach overnight as described above. CoQ10 was then added to each of the plates. Further, lycopene was added to one of the plates, and the carotenoids were added to another. Three plates (one of the plates containing only CoQ10 was treated as a control) were then incubated with 0.03% hypochlorite (“HOCL”) for 1.5 hours. Then the samples were removed and assayed by HPLC to determine CoQ10 levels.

[3] = Oxidation of CoQ10 by sodium hypochlorite, with or without lycopene (HPLC); type: physicochemical
Procedure: as §2
Methods and Materials. The following experiment examined the effect of sodium hypochlorite on CoQ10.
For this experiment, CoQ10 was prepared in HPLC “mobil phase” (methanol:hexane) and incubated with different concentrations of sodium hypochlorite prepared in water/methanol. The reaction was allowed to proceed for up to 30 minutes, at which time samples were injected on HPLC.
The stock lycopene was 10 mg/ml in soybean oil. It was diluted into toluene and used in the reaction at 0.1% lycopene. To allow the CoQ10, hypochlorite aqueous solution and lycopene to react, a detergent was used to bring the polar and nonpolar phases together. The incubation lasted for 30 minutes.

[4] = Degradation by hydroxyl radicals from the Fenton reaction (HPLC); type: physicochemical; details: room temperature, one hour
Procedure: as §2
Methods and Materials. The following experiment examined the effect of the hydroxyl radical on CoQ10. The hydroxyl radical is a reactive oxygen species (“ROS”) produced in the human body. The radical is generated by the reaction of iron with hydrogen peroxide (commonly called the Fenton reaction).
For this experiment, CoQ10 was prepared in a solution of chloroform/ethanol (1:1) at a concentration of 10 micrograms/ml. The Fenton reaction was then initiated by the addition of hydrogen peroxide and iron (III) chloride and allowed to proceed at room temperature for one hour, at which time samples were injected on HPLC.

IL-6 = test: UV-induced IL-6 in dermal fibroblasts (ELISA); type: cell-based, human; details: 10 micromolar, 24 hours
Excerpt: (§3) Methods and Materials. The following experiment involved examining the effect of CoQ10 on UVR-induced inflammatory mediators in human dermal fibroblasts. That is, because skin aging is known to be accelerated by inflammatory cytokines produced in the skin by UVR, this experiment assessed the ability of CoQ10 to inhibit the production of the inflammatory mediators produced in human dermal fibroblasts in response to either UVB radiation or to stimulation by IL-1, a pro-inflammatory cytokine produced in keratinocytes by UVR.
(§4) The dose of UV for stimulating the production in fibroblasts of each of the inflammatory mediators—PGE-2, IL-6, IL-8, and the matrix metalloproteinase (“MMP-1”)—was 50 mJ.
(§5) The cells were isolated and cultured as follows. […]
as §1

MMP-1 [5] = test: IL-1-induced MMP-1 in dermal fibroblasts (ELISA); type: cell-based, human; details: Example 3; CoQ10 10 μM, 24 hours
[6] = Oxidation of CoQ10 by potassium hydroxide, with or without colorless carotenoids (HPLC); type: physicochemical; details: 600 μM CoQ10, 1 mM KOH, 30 minutes, room temperature
Procedure: as §2
Methods and Materials. The following experiment examined whether colorless carotenoids could protect CoQ10 from potassium hydroxide oxidation.
600 μM of CoQ10 was prepared in chloroform stock. 500 μg/ml of the colorless carotenoids was prepared in DMSO. The calculated amount of potassium hydroxide (“KOH”) was 1 mM. Three plates of cells were prepared and allowed to attach overnight as described above. CoQ10 was then added to each of the plates. Further, KOH was added to two of the plates (one was maintained as a control containing only CoQ10). Further, the carotenoids were added to one of the plates containing KOH. Reactions were performed in a total volume of 1 ml. The cells containing KOH were incubated for 30 minutes at room temperature with the KOH. Then the samples were removed and assayed by HPLC to determine CoQ10 levels.

MMP-1 [7] = test: UV-induced MMP-1 in dermal fibroblasts (ELISA); type: cell-based, human; details: 10 micromolar, 50 mJ UV, 24 hours
Excerpt: as §3, §4, §5, §1

[8] = Effect of UVB radiation on stability of CoQ10 in PBS buffer (HPLC); type: physicochemical
Procedure: (§6) HPLC Methods. To measure CoQ10 levels in tissue culture medium, an appropriate high performance liquid chromatography (“HPLC”) method had to be established.
(§7) For the instant examples, a reliable HPLC method was established for CoQ10 using an isochratic method with a mobile phase of 85% methanol and 15% hexane. CoQ10 was detected at 275 nm.
as §2
(§8) Methods and Materials. The following experiment involved examining the effect of ultraviolet radiation (“UVR”) on levels of CoQ10 in culture medium. More specifically, ultraviolet-B (“UVB,” which is ultraviolet radiation ranging from about 290 nm to about 320 nm) dose-response studies were conducted on various concentrations of CoQ10 placed in either PBS buffer or into culture media. Doses of UVB ranged from 50 mJ to 200 mJ. In the culture media, 10 μm of CoQ10 was placed in a fibroblast culture for 24 hours.

[9] = Effect of UVB radiation on stability of CoQ10 in culture with fibroblasts (HPLC); type: physicochemical; details: fibroblast culture, 10 μM CoQ10, 24 hours
Procedure: as §6, §7, §2, §8

[10] = Solubility of CoQ10 in solvents compatible with cultured cells; type: physicochemical
Excerpt: Because of the very poor solubility of CoQ10 in any solvent that is compatible with cultured cells, 10 μm of CoQ10 was the maximum final concentration that could be used in culture medium.

PGE-2 [11] = test: IL-1-induced PGE-2 in dermal fibroblasts; type: cell-based, human; details: 24 hours
Procedure: The cells were isolated and cultured as follows. The dermal fibroblasts were isolated from human neonatal foreskin and cultured in Dulbecco's modified eagle media with L-glutamine and 4.5 mM glucose and without sodium pyruvate (“DMEM”) (available from Fisher Scientific, Pittsburgh, Pa.) containing 5% horse serum (available from Hyclone, Logan, Utah), 5% fetal bovine serum (available from Hyclone), and penicillin/streptomycin (100 U/100 μg/ml). Cell cultures were grown at 37° C. in a humidified CO2 incubator (5% CO2). Cells were passaged prior to confluence by removing cells with a trypsin/EDTA solution, followed by centrifugation and re-seeding.
as §1, with “overnight. The medium was then replaced with PBS for irradiation. A bank of two commercially available FS20 lamps were used for irradiation of cells.” for “overnight.”
The impact of CoQ10, colorless carotenoids, and a combination of both on PGE-2 in fibroblasts stimulated with IL-1 was examined. […] All of the plates were then incubated for 24 hours and then the media was removed from culture and cells counted.

loss of CoQ10 caused by hypochlorite ([2]; 695 μg/ml CoQ10, 0.03% hypochlorite) [%]	loss of CoQ10 caused by sodium hypochlorite ([3]; Example 5, methanol:hexane, up to 30 minutes) [%]	abundance or structure after the Fenton reaction ([4]; 10 micrograms/ml in chloroform/ethanol (1:1))	loss of CoQ10 due to oxidation by potassium hydroxide [6] [%]	stability of CoQ10 to UVB ([8]; UVB doses 50 mJ to 200 mJ)	decrease in the concentration of CoQ10 ([8]; high UVB doses, within experimental error)	amount of CoQ10 after UVB radiation [9]	solubility ([10]; any solvent compatible with cultured cells)	maximum final concentration that could be used in culture medium ([10]; culture medium) [μm]	reduction of amount by the Fenton reaction ([4]; hydrogen peroxide and iron (III) chloride) [%]	SMILES	effect on levels of PGE-2 after UVB irradiation (PGE-2 [1])	level of IL-6 induced in UVR-treated fibroblasts (IL-6)	blocking the IL-1 induction in MMP-1 (MMP-1 [5])	level of UVR-induced MMP1 (MMP-1 [7])	IL-1 induction of PGE-2 (PGE-2 [11]; Example 2, 10 micromolar, IL-1 100 picograms/ml)	inhibition at 10 µM (PGE-2 [11]; Homo sapiens, Fibroblast, Example 3, CoQ10 10 μM, colorless carotenoid 15 micrograms/ml, read-out: inhibition of the IL-1 induction of PGE-2) [%]	oxidation of CoQ10 by hypochlorite in the presence of the carotenoid ([2]; 0.03% hypochlorite, lycopene 2 mg/ml, or phytoene 0.0142% and phytofluene 0.0012%)	oxidation of CoQ10 by hypochlorite in the presence of the carotenoid ([3]; Example 6, 0.1% lycopene, detergent, 30 minutes)
60	50	did not cause a reduction	80	exhibited stability	< 10	generally unaffected	very poor	10	–	COC1=C(OC)C(=O)C(C/C=C(\C)CC/C=C(\C)CC/C=C(\C)CC/C=C(\C)CC/C=C(\C)CC/C=C(\C)CC/C=C(\C)CC/C=C(\C)CC/C=C(\C)CCC=C(C)C)=C(C)C1=O [CoQ10, coenzyme Q10]	only a small inhibitory effect	markedly lowered	ineffective	back to near control levels	significant reduction	16	–	–
–	–	–	–	–	–	–	–	–	50	CC(C)=CCC/C(C)=C/C=C/C(C)=C/C=C/C(C)=C/C=C/C=C(C)/C=C/C=C(C)/C=C/C=C(\C)CCC=C(C)C [lycopene]	–	–	–	–	–	–	caused a reduction in oxidation	significantly reduced

— patent US20070078180A1, “Methods and compositions for stabilizing an antioxidant” (priority 2005, published 2007)
